Literature values as cited in publication PMC5427847, “Epilepsy-associated GRIN2A mutations reduce NMDA receptor trafficking and agonist potency – molecular profiling and functional rescue” (Scientific Reports, 2017).

How the values were obtained:
[1] = tested on: GluN2A K484 to aspartic acid; conditions: K484 to aspartic acid versus wild type
[2] = tested on: D732A-GluN1; conditions: competitive glycine site antagonist
[3] = tested on: GluN1 D732 mutated to alanine, co-expressed with GluN2A; conditions: receptor remaining on the cell surface

N[C@@H](CCC(=O)O)C(=O)O [Glutamate, glutamate]
Reduction of glutamate affinity [1]: 6 fold

O=C(O)c1cc(=O)c2c(Cl)cc(Cl)cc2[nH]1 [DCKA]
Rescue of mutant receptors trapped within the ER [2]: has been achieved

NCC(=O)O [Glycine, glycine]
Effect on glycine binding [1]: no measurable effect
Reduction in glycine potency [3]: 4000 fold
